The values below come from patent publication US10159268B2, “Reduced sodium food products” (GENERAL MILLS, INC., priority 2013, dated 2018).

The nature of experiment [1]: Na-solution DAP test: trained panel rates saltiness of compounds in sodium solution. The class given is in vivo. Further details: key: DAP score; >3.1 indicates saltiness or salt enhancement. The following applies: single compound in sodium solution; best DAP score of tested concentrations 0.1, 1 and 10 ppm; DAP score greater than 3.1 indicates saltiness or salt enhancement. On the procedure:
(§1) Briefly, each individual tested compound was placed in water and in sodium solution to test saltiness and saltiness enhancement potential. Tests in water were executed in a compound concentration of 10 ppm. Tests in sodium solution were executed in compound concentrations of 0.1, 1 and 10 ppm. Two control sodium solutions with known organoleptic salt intensities were provided as references for each test. The test for individual compounds was also conducted using simple broth instead of sodium solution. A number of compound combinations identified from the Na-solution DAP test were used for the broth DAP test. Tests were executed with a trained panel of 9-12 assessors. For Na-solution DAP tests, a DAP score of greater than 3.1 indicates saltiness or salt enhancement. The DAP score can be correlated with a sodium reduction potential by subtracting 3.1 from the DAP score. […] For broth DAP tests, a DAP score of greater than 7.6 indicates saltiness or salt enhancement. The DAP score can be correlated with a sodium reduction potential by subtracting 7.6 from the DAP score.

Experiment [2] can be described thus: Broth DAP test: trained panel rates saltiness of compounds in simple broth. The class given is in vivo. Further details: key: DAP score; >7.6 indicates saltiness or salt enhancement in broth. The following applies: single compound in simple broth; best DAP score of tested concentrations 0.1, 1 and 10 ppm; DAP score greater than 7.6 indicates saltiness or salt enhancement. On the procedure: as §1

With `C[C@@H]1C[C@@H]2O[C@@]3(O[C@@H]2C(C)(C)O)C(O)[C@@]2(C)C4CCC5C(C)(C)[C@@H](OC6OC[C@H](O)[C@@H](O)[C@@H]6O)CC[C@@]56C[C@@]46CC[C@]2(C)C13` (stereo partly drawn) [Compound 41, Cimigoside; b-D-Xylopyranoside], the “DAP in Na-Sol.” value in experiment [1] turned out to be 3.9. For the same compound, the “DAP in Broth” value in experiment [2] stood at 7.5.

As for `CC1(C)CC[C@]2(C(=O)O)CC[C@]3(C)C(=CCC4[C@@]5(C)C[C@@H](O)[C@H](O)C(C)(C)C5CC[C@]43C)C2C1` (some centres unmarked) [Compound 42, Maslinic acid, Crategolic acid], the “DAP in Na-Sol.” value in experiment [1] was 3.1. Further, the “DAP in Broth” value in experiment [2] was determined as 8.1.

As to `C[C@H]1[C@H](C)CC[C@]2(C(=O)O)CC[C@]3(C)C(=CC[C@@H]4[C@@]5(C)CC[C@H](O)C(C)(C)[C@@H]5CC[C@]43C)[C@H]12` [Compound 43, Ursolic acid], in experiment [1], the “DAP in Na-Sol.” value was 3.7. In experiment [2], the “DAP in Broth” value amounted to 8.0.

`COc1cc2c(c(OC)c1OC)-c1c(cc3c(c1OC)OCO3)C[C@H](C)[C@@](C)(O)C2` [Compound 44, Schizandrol B; Gomisin A]: in experiment [1], the “DAP in Na-Sol.” value was 3.8. For the same compound, the “DAP in Broth” value in experiment [2] stood at 8.6.

For the compound `COc1cc2c(c(OC)c1OC)-c1c(cc(OC)c(OC)c1OC)C[C@H](C)[C@H](C)C2` [Compound 45, Schisandrin A, Deoxyschizandrin], the “DAP in Na-Sol.” value in experiment [1] is on record as 3.5. Also, the “DAP in Broth” value in experiment [2] came to 8.2.

On to `COc1cc2c(c(OC)c1OC)-c1c(cc3c(c1OC)OCO3)CC(C)C(C)C2` (centres unmarked) [Compound 46, Schizandrin B], for which, in experiment [1], the “DAP in Na-Sol.” value came to 3.6. Also, the “DAP in Broth” value in experiment [2] came to 7.8.

For `COc1cc(C[C@@H](CO)[C@H](CO)Cc2ccc(O[C@@H]3O[C@H](CO)[C@@H](O)[C@H](O)[C@H]3O)c(OC)c2)ccc1O` [Compound 48, Secoisolariciresinol; Secoisolariciresin-4-yl b-D-glucopyranoside], in experiment [1], the “DAP in Na-Sol.” value turned out to be 3.7. For the same compound, the “DAP in Broth” value in experiment [2] came to 7.8.

Take `COc1cc(CC(C)C(C)Cc2ccc(O)c(OC)c2)ccc1O` (centres unmarked) [Compound 49, Dihydrogualaretic acid]: the “DAP in Na-Sol.” value in experiment [1] came to 3.6. Further, the “DAP in Broth” value in experiment [2] worked out at 8.2.

Take `CCCC(=O)c1c(OC)cc(OC)c(CCO)c1O` [Compound 54]: in experiment [1], the “DAP in Na-Sol.” value amounted to 3.4. Besides, in experiment [2], the “DAP in Broth” value was 8.1.

`CC1(C)CC2C1CCC1(C)CC2(O)CCC1O` (centres unmarked) [Compound 56, Senecrassidiol]: the “DAP in Na-Sol.” value in experiment [1] came out at 4. Also, in experiment [2], the “DAP in Broth” value is given as 7.7.

In the case of `C/C=C(\C)C(=O)O[C@H]1C[C@@H](OC(C)=O)[C@@]2(C)CO[C@@H]3C2[C@@]1(C)[C@@H](CC(=O)OC)[C@]1(C)C2=C(C)[C@H](c4ccoc4)C[C@H]2O[C@H]31` (some centres unmarked) [Compound 58, Salannin], the “DAP in Na-Sol.” value in experiment [1] worked out at 3.3. Also, in experiment [2], the “DAP in Broth” value is given as 8.0.

As for `COc1cc(C2c3cc4c(cc3CC3COC(=O)C32)OCO4)cc(OC)c1OC` (centres unmarked) [Compound 59, Isoanthricin], in experiment [1], the “DAP in Na-Sol.” value is reported as 3.3. Also, in experiment [2], the “DAP in Broth” value is given as 7.9.

Take `CC(C)C(=O)c1c2c(c3oc(=O)cc(-c4ccccc4)c3c1O)CC(C(C)(C)O)O2` (centres unmarked) [Compound 60, Mammea A/AD cyclo F]: in experiment [1], the “DAP in Na-Sol.” value was found to be 3.8. Also, the “DAP in Broth” value in experiment [2] is reported as 8.1.

On to `COc1c2ccoc2cc2oc(=O)ccc12` [Compound 62, Bergapten], for which the “DAP in Na-Sol.” value in experiment [1] is listed as 3.9. Further, the “DAP in Broth” value in experiment [2] came out at 8.0.

Take `CC(C)(O)[C@@H](O)COc1c2ccoc2cc2oc(=O)ccc12` [Compound 63, Prangol]: in experiment [1], the “DAP in Na-Sol.” value came to 3.5. Besides, the “DAP in Broth” value in experiment [2] came to 8.0.

With `CC(C)=CCOc1c2occc2cc2ccc(=O)oc12` [Compound 64, Imperatorin], the “DAP in Na-Sol.” value in experiment [1] is 3.7. Moreover, the “DAP in Broth” value in experiment [2] is reported as 7.8.

For the compound `COc1c2ccoc2c(OCC=C(C)C)c2oc(=O)ccc12` [Compound 65, Phellopterin], the “DAP in Na-Sol.” value in experiment [1] was 3.3. Besides, in experiment [2], the “DAP in Broth” value is on record as 7.9.

On to `CC(=O)OC1CCC2(C)C(COc3ccc4ccc(=O)oc4c3)C(C)(O)CCC2C1(C)C` (centres unmarked) [Compound 66, terpenoid coumarins], for which the “DAP in Na-Sol.” value in experiment [1] was 3.2. The “DAP in Broth” value in experiment [2] was determined as 7.8.

With `C[C@]12CC[C@H](O)C[C@H]1CC[C@@H]1[C@@H]2CC[C@]2(C)[C@@H](C3=CC(=O)OC3)CC[C@]12O` [Compound 73, Digitoxigenin], in experiment [1], the “DAP in Na-Sol.” value is reported as 3.5. Further, in experiment [2], the “DAP in Broth” value worked out at 8.0.

`CC(=O)O[C@@H]1C[C@H]2C(C)(C)C(=O)C=C[C@]2(C)[C@H]2CC[C@]3(C)C(=CC(=O)[C@H]3c3ccoc3)[C@@]21C` [Compound 74, Azadiradione]: the “DAP in Na-Sol.” value in experiment [1] stood at 3.2. In experiment [2], the “DAP in Broth” value is 7.7.

On to `COC1CC(OC2CCC3(C=O)C(CCC4C3CCC3(C)C(C5=CC(=O)OC5)CCC43O)C2)OC(C)C1OC1OC(CO)C(O)C(O)C1O` (centres unmarked) [Compound 76, Apobioside], for which the “DAP in Na-Sol.” value in experiment [1] worked out at 3.2. Moreover, in experiment [2], the “DAP in Broth” value came out at 8.0.

With `COC1CC(OC2CCC3(C=O)C(CCC4C3CCC3(C)C(C5=CC(=O)OC5)CCC43O)C2)OC(C)C1O` (centres unmarked) [Compound 77, Apocannoside], the “DAP in Na-Sol.” value in experiment [1] is reported as 3.4. The “DAP in Broth” value in experiment [2] is listed as 8.1.

In the case of `C=CCCCCCCC(C(=O)O)C(O)CC(=O)O` (centres unmarked) [Compound 81, a 2-octenyl-3-hydroxy-1,5-pentanedioic acid], the “DAP in Na-Sol.” value in experiment [1] is 3.2. For the same compound, in experiment [2], the “DAP in Broth” value is on record as 7.8.

`C=CCCCCCCCCCCC[C@H](O)C[C@H](O)CO` [Compound 82, 16-Heptadecene-1,2,4-triol; Avocadene]: in experiment [1], the “DAP in Na-Sol.” value worked out at 3.8. Also, the “DAP in Broth” value in experiment [2] is on record as 8.3.

With `C=CCCCCCCCCCCCC(CC(O)COC(C)=O)OC(C)=O` (centres unmarked) [Compound 83, 16-Heptadecene-1,2,4-triol, 1,4-diacetate], the “DAP in Na-Sol.” value in experiment [1] worked out at 4.2. Further, the “DAP in Broth” value in experiment [2] was 8.1.

In the case of `CCCCCCCCCCNC(C)=O` [Compound 84, N-Decyl acetamide], the “DAP in Na-Sol.” value in experiment [1] stood at 3.8. Further, the “DAP in Broth” value in experiment [2] came out at 8.1.

For `CCC=CC=CC(O)CC=CCCCCCCCC(=O)O` (centres unmarked) [Compound 86, 12-hydroxy-9,13,15-Octadecatrienoic acid], the “DAP in Na-Sol.” value in experiment [1] is on record as 3.9. In addition, the “DAP in Broth” value in experiment [2] was determined as 8.0.

As to `CCCCC/C=C/C=C/C(O)CCCCCCCC(=O)O` (centres unmarked) [Compound 88, Dimorphecolic acid], the “DAP in Na-Sol.” value in experiment [1] was determined as 3.2. The “DAP in Broth” value in experiment [2] was 8.0.

`CC/C=C\C/C=C\C/C=C\CCCCCCCC(=O)O` [Compound 89, Linolenic acid]: the “DAP in Na-Sol.” value in experiment [1] stood at 3.7. Also, the “DAP in Broth” value in experiment [2] was found to be 7.6.

With Brevifolin [Compound 53], the “DAP in Na-Sol.” value in experiment [1] is on record as 3.7. Further, in experiment [2], the “DAP in Broth” value was found to be 8.5.

On to “a pentadecatrienyl-1,3-benzenediol [Compound 10]”, for which the “DAP in Na-Sol.” value in experiment [1] was 3.9. Also, the “DAP in Broth” value in experiment [2] was 7.9.
